In ChEMBL document CHEMBL1743141, “Membrane transporters in drug development” (Nat Rev Drug Discov, 2010) one finds Activity data, which are given here for nine molecules.

Common to all, as to assay type: ADME
Data set [1] concerns the target T1, ATP-binding cassette sub-family C member 4 (Homo sapiens, UniProt O15439).
T1 sequence (O15439 whole entry): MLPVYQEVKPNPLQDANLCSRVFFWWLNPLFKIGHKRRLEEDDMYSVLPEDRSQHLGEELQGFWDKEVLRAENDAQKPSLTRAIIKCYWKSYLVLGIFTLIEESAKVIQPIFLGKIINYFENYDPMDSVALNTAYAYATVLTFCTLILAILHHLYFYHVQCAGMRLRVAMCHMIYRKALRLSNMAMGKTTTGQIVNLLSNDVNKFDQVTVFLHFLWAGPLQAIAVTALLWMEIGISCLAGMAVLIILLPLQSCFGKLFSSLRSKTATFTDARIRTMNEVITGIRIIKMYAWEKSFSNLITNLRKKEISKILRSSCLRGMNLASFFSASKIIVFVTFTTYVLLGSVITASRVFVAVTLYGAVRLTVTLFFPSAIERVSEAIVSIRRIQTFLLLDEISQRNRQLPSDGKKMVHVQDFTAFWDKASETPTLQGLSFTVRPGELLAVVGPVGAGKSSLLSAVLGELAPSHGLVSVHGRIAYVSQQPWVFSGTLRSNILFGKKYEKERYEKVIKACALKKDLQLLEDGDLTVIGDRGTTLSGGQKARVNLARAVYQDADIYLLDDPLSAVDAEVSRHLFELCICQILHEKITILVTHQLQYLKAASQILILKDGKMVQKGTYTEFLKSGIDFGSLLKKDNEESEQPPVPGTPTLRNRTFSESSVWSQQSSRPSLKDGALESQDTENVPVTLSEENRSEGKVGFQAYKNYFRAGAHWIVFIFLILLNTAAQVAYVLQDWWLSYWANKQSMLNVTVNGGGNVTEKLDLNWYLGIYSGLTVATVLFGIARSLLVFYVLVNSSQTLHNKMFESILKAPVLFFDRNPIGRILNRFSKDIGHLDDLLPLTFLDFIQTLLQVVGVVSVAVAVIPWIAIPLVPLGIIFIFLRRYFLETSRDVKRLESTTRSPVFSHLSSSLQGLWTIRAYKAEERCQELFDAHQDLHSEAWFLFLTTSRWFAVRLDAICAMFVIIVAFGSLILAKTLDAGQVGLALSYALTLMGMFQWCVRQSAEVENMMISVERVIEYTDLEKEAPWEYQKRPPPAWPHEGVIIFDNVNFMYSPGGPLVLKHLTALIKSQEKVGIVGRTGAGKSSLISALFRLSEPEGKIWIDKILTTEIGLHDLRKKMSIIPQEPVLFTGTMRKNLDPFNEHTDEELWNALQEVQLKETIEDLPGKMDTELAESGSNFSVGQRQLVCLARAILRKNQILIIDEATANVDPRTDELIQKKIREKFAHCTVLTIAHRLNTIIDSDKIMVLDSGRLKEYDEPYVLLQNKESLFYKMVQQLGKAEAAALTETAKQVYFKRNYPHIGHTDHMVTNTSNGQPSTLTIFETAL
Briefly: Inhibitors of transporters of clinical importance in the absorption and disposition of drugs, MRP4.

Data set [2] concerns the target ATP-binding cassette sub-family C member 2 (Homo sapiens, UniProt Q92887). Briefly: Inhibitors of transporters of clinical importance in the absorption and disposition of drugs, MRP2.
Data set [3] addresses ATP-binding cassette sub-family C member 3 (Homo sapiens, UniProt O15438). Briefly: Inhibitors of transporters of clinical importance in the absorption and disposition of drugs, MPR3.
Data set [4] has as its target T2, Solute carrier family 15 member 2 (Homo sapiens, UniProt Q16348).
T2 sequence (Q16348 whole entry): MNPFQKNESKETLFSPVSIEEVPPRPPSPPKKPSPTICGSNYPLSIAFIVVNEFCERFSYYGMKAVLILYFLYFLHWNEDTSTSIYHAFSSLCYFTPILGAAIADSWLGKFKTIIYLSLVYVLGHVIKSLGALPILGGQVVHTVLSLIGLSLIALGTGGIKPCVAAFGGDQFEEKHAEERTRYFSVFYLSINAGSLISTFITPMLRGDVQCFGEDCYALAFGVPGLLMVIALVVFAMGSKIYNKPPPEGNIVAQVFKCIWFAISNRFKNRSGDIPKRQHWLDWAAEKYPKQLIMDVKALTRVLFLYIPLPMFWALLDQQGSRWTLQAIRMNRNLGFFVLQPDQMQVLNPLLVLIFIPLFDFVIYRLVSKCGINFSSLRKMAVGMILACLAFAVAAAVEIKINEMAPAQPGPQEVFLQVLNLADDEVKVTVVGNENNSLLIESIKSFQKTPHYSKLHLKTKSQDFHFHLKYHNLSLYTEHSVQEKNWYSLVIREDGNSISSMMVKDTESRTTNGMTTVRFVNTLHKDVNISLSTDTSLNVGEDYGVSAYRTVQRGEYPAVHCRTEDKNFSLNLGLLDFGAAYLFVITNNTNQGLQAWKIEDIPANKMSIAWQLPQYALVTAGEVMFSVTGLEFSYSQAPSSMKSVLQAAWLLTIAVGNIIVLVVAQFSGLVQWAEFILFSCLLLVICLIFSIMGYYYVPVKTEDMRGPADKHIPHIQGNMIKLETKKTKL
Put plainly: Inhibitors of transporters of clinical importance in the absorption and disposition of drugs, PEPT2.

The target in data set [5] is T3, Solute carrier organic anion transporter family member 1B1 (Homo sapiens, UniProt Q9Y6L6).
T3 sequence (Q9Y6L6 whole entry): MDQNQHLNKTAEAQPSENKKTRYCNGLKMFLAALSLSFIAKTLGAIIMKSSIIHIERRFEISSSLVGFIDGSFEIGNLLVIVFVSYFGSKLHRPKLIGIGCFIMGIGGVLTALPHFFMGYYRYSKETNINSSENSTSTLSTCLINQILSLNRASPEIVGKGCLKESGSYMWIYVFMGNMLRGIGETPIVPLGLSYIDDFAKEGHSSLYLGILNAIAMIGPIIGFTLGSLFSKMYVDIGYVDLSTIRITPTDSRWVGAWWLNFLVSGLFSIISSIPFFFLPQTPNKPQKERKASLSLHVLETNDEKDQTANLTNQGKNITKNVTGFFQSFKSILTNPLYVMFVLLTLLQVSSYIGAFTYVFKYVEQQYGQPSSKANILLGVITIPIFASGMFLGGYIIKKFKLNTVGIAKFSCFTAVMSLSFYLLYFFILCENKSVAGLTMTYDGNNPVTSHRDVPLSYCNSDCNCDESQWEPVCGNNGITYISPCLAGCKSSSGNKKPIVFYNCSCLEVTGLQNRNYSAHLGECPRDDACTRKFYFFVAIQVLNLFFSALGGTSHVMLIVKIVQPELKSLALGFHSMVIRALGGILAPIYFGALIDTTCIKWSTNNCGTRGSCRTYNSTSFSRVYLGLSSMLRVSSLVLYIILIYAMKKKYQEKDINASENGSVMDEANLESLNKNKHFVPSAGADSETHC
Put plainly: Inhibitors of transporters of clinical importance in the absorption and disposition of drugs, OATP1B1.

Data set [6] deals with T4, Solute carrier organic anion transporter family member 1B3 (Homo sapiens, UniProt Q9NPD5).
T4 sequence (Q9NPD5 whole entry): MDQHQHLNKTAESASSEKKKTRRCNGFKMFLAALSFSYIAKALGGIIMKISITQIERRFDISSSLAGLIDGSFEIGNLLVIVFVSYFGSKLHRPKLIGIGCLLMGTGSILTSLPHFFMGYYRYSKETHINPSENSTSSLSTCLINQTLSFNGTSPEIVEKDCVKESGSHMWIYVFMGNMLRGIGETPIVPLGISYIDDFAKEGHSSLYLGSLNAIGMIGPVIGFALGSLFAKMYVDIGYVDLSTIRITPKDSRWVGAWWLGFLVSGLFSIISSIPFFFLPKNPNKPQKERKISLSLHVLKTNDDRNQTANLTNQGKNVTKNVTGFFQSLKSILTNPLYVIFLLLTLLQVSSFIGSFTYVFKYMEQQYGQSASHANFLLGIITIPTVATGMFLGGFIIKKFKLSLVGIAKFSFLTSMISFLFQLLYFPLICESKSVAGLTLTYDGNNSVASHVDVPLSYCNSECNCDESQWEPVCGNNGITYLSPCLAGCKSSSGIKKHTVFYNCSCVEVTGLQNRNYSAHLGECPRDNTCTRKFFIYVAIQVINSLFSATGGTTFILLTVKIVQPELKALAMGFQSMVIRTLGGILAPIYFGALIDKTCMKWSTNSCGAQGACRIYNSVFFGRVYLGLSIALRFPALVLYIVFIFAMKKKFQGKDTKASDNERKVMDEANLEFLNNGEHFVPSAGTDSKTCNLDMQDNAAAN
Put plainly: Inhibitors of transporters of clinical importance in the absorption and disposition of drugs, OATP1B3.

Data set [7] concerns the target T5, Solute carrier organic anion transporter family member 1A2 (Homo sapiens, UniProt P46721).
T5 sequence (P46721 whole entry): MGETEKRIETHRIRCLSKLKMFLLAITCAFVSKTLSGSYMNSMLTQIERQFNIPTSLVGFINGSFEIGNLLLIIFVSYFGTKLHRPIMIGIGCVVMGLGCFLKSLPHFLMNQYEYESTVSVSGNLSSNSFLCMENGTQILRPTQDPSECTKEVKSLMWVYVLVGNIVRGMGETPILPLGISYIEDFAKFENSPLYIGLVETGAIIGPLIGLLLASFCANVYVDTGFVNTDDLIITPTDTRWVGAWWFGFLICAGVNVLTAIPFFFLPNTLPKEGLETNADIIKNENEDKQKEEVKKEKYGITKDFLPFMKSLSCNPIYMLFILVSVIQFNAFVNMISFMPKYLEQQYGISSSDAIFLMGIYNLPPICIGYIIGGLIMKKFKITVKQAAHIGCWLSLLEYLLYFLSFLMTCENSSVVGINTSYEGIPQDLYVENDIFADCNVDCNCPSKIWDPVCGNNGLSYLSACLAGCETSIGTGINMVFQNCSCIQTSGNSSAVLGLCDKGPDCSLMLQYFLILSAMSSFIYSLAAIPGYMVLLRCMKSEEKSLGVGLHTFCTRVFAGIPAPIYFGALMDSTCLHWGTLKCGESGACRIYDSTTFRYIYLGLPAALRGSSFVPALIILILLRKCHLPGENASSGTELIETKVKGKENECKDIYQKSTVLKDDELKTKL
Put plainly: Inhibitors of transporters of clinical importance in the absorption and disposition of drugs, OATP1A2.

The target of data set [8] is T6, Organic anion transporter 3 (Homo sapiens, UniProt Q8TCC7).
T6 sequence (Q8TCC7 whole entry): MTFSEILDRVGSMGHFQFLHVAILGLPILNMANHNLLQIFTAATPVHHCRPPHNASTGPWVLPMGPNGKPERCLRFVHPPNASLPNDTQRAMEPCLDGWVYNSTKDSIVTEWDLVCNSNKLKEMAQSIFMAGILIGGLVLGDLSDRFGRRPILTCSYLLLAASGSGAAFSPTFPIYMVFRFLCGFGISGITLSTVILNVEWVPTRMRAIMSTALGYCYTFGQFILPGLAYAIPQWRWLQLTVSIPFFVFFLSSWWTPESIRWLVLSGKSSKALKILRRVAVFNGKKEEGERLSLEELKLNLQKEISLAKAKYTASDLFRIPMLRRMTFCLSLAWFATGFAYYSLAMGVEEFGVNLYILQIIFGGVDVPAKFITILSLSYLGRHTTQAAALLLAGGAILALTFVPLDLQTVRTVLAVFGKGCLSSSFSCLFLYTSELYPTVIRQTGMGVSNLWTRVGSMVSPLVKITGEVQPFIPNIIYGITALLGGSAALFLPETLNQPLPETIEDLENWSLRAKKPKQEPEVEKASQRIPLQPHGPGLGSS
Briefly: Inhibitors of transporters of clinical importance in the absorption and disposition of drugs, OAT3.

Chain of ATP-binding cassette sub-family C member 3 (O15438 whole entry): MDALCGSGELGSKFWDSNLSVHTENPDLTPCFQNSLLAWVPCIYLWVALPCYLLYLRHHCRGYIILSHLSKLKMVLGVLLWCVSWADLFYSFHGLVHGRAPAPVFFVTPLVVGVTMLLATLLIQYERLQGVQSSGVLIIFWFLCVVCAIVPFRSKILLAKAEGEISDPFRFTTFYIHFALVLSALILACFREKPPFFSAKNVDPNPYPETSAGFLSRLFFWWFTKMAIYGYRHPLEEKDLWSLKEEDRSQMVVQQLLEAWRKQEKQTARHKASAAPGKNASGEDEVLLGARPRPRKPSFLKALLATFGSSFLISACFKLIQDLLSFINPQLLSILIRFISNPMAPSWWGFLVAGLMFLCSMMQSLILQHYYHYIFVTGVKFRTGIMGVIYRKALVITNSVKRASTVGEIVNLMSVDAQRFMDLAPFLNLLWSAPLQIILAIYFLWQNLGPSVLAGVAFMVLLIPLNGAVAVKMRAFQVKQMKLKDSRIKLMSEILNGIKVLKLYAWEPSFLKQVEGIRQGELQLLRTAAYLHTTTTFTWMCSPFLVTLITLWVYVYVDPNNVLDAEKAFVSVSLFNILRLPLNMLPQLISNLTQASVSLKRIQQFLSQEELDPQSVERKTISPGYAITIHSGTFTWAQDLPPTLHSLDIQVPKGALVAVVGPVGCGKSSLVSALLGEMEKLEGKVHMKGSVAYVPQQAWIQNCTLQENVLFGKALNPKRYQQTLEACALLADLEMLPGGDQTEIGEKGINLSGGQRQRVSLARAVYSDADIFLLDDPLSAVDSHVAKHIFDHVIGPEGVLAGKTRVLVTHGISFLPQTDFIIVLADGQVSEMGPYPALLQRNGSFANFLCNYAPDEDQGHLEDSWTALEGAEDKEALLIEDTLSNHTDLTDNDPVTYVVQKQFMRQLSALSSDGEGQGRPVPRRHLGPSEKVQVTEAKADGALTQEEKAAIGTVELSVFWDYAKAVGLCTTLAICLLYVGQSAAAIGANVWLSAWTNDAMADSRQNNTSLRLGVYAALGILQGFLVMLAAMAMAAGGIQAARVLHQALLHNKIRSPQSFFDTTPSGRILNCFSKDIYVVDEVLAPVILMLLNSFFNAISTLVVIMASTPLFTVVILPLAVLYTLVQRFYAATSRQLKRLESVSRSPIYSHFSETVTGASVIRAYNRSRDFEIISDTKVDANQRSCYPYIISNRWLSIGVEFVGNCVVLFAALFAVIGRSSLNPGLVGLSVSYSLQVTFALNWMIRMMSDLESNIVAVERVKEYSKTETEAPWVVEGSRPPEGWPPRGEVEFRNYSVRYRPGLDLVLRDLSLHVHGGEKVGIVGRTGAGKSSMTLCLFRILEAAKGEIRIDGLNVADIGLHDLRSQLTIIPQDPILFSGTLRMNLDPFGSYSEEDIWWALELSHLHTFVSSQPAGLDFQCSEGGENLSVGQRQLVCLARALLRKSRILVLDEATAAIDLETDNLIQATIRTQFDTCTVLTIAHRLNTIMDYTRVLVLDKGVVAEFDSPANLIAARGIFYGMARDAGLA
Chain of ATP-binding cassette sub-family C member 2 (Q92887 whole entry): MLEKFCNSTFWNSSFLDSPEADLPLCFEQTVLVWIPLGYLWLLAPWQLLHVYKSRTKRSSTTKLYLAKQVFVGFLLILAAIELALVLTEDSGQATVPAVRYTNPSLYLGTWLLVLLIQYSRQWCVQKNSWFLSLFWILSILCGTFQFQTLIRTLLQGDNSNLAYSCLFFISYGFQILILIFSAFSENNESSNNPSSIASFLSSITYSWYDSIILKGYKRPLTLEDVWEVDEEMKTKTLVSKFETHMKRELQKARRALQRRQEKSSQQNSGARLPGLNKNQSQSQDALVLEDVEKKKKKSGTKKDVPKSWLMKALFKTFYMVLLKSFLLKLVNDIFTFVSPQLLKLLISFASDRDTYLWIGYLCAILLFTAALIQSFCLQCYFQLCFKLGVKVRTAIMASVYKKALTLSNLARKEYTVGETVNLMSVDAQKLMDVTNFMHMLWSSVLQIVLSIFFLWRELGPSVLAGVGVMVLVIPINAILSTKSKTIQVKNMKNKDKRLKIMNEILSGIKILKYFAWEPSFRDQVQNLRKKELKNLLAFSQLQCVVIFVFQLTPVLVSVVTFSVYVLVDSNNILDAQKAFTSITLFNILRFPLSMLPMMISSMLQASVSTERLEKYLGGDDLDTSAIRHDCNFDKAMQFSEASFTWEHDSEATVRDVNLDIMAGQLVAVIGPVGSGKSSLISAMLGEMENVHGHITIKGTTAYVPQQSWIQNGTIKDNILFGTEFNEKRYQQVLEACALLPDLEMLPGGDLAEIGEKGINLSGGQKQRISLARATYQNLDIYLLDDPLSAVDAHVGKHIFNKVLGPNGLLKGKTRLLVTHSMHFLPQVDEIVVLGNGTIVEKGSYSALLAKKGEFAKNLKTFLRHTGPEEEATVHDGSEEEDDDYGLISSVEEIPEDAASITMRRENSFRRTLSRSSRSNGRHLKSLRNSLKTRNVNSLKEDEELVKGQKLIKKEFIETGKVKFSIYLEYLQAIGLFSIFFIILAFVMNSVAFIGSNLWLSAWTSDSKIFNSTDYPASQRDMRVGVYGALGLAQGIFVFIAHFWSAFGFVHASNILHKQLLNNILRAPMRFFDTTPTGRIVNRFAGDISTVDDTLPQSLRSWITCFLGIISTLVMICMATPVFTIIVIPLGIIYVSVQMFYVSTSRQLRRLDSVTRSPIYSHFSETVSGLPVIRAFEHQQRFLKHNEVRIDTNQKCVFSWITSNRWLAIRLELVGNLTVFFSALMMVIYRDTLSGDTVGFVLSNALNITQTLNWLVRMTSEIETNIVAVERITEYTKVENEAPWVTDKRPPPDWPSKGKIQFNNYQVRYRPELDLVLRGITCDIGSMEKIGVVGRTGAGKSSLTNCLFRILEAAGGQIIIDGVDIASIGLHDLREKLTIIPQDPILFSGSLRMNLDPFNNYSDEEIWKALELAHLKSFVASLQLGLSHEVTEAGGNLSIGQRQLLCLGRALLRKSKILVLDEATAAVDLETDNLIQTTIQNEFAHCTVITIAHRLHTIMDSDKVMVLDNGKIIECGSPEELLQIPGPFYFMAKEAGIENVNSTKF

Turning to `Cc1ccc(-c2cc(C(F)(F)F)nn2-c2ccc(S(N)(=O)=O)cc2)cc1` [CELECOXIB], the Activity entry in data set [1] is given as “transporter inhibitor”.

In the case of `CC(C)Nc1cccnc1N1CCN(C(=O)c2cc3cc(NS(C)(=O)=O)ccc3[nH]2)CC1` [DELAVIRDINE], the Activity result in data set [2] and in data set [3] was “transporter inhibitor” throughout.

`O=C(O)Cc1ccccc1Nc1c(Cl)cccc1Cl` [DICLOFENAC]: the Activity entry in data set [1] is “transporter inhibitor”.

Regarding `O=C1Nc2ccc(Cl)cc2[C@@](C#CC2CC2)(C(F)(F)F)O1` [EFAVIRENZ], the Activity entry in data set [2] and in data set [3] was “transporter inhibitor” each time.

In the case of `Nc1nc(=O)n([C@@H]2CS[C@H](CO)O2)cc1F` [EMTRICITABINE], the Activity result in data set [2] and in data set [3] was “transporter inhibitor” each time.

With `CCC(=O)O[C@@H](O[P@](=O)(CCCCc1ccccc1)CC(=O)N1C[C@H](C2CCCCC2)C[C@H]1C(=O)O)C(C)C` [FOSINOPRIL], the Activity result in data set [4] is given as “transporter inhibitor”.

As for `Cc1cccc(C)c1OCC(=O)N[C@@H](Cc1ccccc1)[C@@H](O)C[C@H](Cc1ccccc1)NC(=O)[C@H](C(C)C)N1CCCNC1=O` [LOPINAVIR], the Activity entry in data set [5], in data set [6] and in data set [7] was “transporter inhibitor” throughout.

For the molecule `CCCN(CCC)S(=O)(=O)c1ccc(C(=O)O)cc1` [PROBENECID], the Activity result in data set [8] is “transporter inhibitor”.

Take `C[C@H](CSC(=O)c1ccccc1)C(=O)N1C[C@@H](Sc2ccccc2)C[C@H]1C(=O)O` [ZOFENOPRIL]: in data set [4], the Activity result is on record as “transporter inhibitor”.
